Laboratory results published in patent US10457703B2, “Bile acid derivatives as FXR/TGR5 agonists and methods of use thereof” (ENANTA PHARMACEUTICALS, INC., priority 2015, dated 2019).

Biological target: human FXR (NR1H4) (Homo sapiens (Human), UniProt Q96RI1)
Experiment: Human FXR (NR1H4) Assay (Gal4 promoter driven luciferase reporter, Indigo Bioscience kit);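 as to Efficacy (%): 100% equals the efficacy of CDCA; efficacy normalized to CDCA set as 100%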
Format: cell-based
Settings: for EC50: Human FXR (NR1H4) Assay, potency ranges; for Emax: read-out: Efficacy (%)
How it was run: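 CHO reporter cells expressing human FXR with an FXR-responsive luciferase reporter, treated with compound doses at 0.2% DMSO. Incubation lasted 22 h at 37 °C before luciferase detection reagent was added. Luminescence was then read.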

human FXR (NR1H4), sequence (Q96RI1 whole entry, the tested form may be a part): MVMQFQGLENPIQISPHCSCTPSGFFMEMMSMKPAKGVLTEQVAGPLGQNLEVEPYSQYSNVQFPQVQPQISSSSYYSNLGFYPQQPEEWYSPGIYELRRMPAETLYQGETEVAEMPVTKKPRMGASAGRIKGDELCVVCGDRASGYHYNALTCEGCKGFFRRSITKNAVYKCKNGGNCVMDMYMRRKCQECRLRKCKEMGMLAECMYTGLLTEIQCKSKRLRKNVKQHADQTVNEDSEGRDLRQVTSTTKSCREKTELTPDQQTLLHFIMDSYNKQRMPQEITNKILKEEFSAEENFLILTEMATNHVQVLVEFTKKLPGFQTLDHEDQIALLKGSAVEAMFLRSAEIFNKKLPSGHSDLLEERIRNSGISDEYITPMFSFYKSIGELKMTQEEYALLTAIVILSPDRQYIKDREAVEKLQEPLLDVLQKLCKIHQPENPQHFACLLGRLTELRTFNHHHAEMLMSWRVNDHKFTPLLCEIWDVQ

Compound: CCOC(=O)CNC(=O)OCC[C@@H](C)[C@H]1CC[C@H]2[C@@H]3[C@H](O)[C@H](CC)[C@@H]4C[C@H](O)CC[C@]4(C)[C@H]3CC[C@]12C [Example 156]
- EC50: 100 to 1000 nM
- Emax: 193%

Compound: CC[C@H]1[C@@H](O)[C@@H]2[C@H](CC[C@]3(C)[C@@H]([C@H](C)CCOC(=O)N4CCC(Cc5ccccc5)CC4)CC[C@@H]23)[C@@]2(C)CC[C@@H](O)C[C@@H]12 [Example 161]
- EC50: 100 to 1000 nM
- Emax: 226%

Compound: CC[C@H]1[C@@H](O)[C@@H]2[C@H](CC[C@]3(C)[C@@H]([C@H](C)CCOC(=O)NS(=O)(=O)c4ccc(-c5ccccc5)s4)CC[C@@H]23)[C@@]2(C)CC[C@@H](O)C[C@@H]12 [Example 64]
- EC50: 100 to 1000 nM
- Emax: 281%

Compound: CC[C@H]1[C@@H](O)[C@@H]2[C@H](CC[C@]3(C)[C@@H]([C@H](C)CCCOC(=O)NS(=O)(=O)C(C)(C)C)CC[C@@H]23)[C@@]2(C)CC[C@@H](O)C[C@@H]12 [Example 117]
- EC50: 100 to 1000 nM
- Emax: 365%

Compound: CC[C@H]1[C@@H](O)[C@@H]2[C@H](CC[C@]3(C)[C@@H]([C@H](C)COC(=O)NS(=O)(=O)c4ccc(N5CCOCC5)cc4)CC[C@@H]23)[C@@]2(C)CC[C@@H](O)C[C@@H]12 [Example 19]
- EC50: < 100 nM
- Emax: 219%

Compound: CC[C@H]1[C@@H](O)[C@@H]2[C@H](CC[C@]3(C)[C@@H]([C@H](C)CCOC(=O)Nc4ccc(F)cc4Cl)CC[C@@H]23)[C@@]2(C)CC[C@@H](O)C[C@@H]12 [Example 193]
- EC50: 1000 to 10000 nM
- Emax: 179%

Compound: CC[C@H]1[C@@H](O)[C@@H]2[C@H](CC[C@]3(C)[C@@H]([C@H](C)COC(=O)NS(=O)(=O)C4CCCCC4)CC[C@@H]23)[C@@]2(C)CC[C@@H](O)C[C@@H]12 [Example 8]
- EC50: 100 to 1000 nM
- Emax: 327%

Compound: CC[C@H]1[C@@H](O)[C@@H]2[C@H](CC[C@]3(C)[C@@H]([C@H](C)COC(=O)NS(=O)(=O)c4ccc(-n5cncn5)cc4)CC[C@@H]23)[C@@]2(C)CC[C@@H](O)C[C@@H]12 [Example 44-f]
- EC50: < 100 nM
- Emax: 216%

Compound: CC[C@H]1[C@@H](O)[C@@H]2[C@H](CC[C@]3(C)[C@@H]([C@H](C)CCOC(=O)NS(=O)(=O)C(C)C)CC[C@@H]23)[C@@]2(C)CC[C@@H](O)C[C@@H]12 [Example 75]
- EC50: < 100 nM
- Emax: 386%

Compound: CC[C@H]1[C@@H](O)[C@@H]2[C@H](CC[C@]3(C)[C@@H]([C@H](C)COC(=O)NS(=O)(=O)c4ccc(-n5ccnn5)nc4)CC[C@@H]23)[C@@]2(C)CC[C@@H](O)C[C@@H]12 [Example 44-n]
- EC50: 100 to 1000 nM
- Emax: 307%

Compound: CC[C@H]1[C@@H](O)[C@@H]2[C@H](CC[C@]3(C)[C@@H]([C@H](C)COC(=O)NS(=O)(=O)c4ccc(-c5ccc(OC(F)(F)F)cc5)cc4)CC[C@@H]23)[C@@]2(C)CC[C@@H](O)C[C@@H]12 [Example 33]
- EC50: < 100 nM
- Emax: 266%

Compound: CC[C@H]1[C@@H](O)[C@@H]2[C@H](CC[C@]3(C)[C@@H]([C@H](C)CCCOC(=O)NS(=O)(=O)c4ccc5ccccc5c4)CC[C@@H]23)[C@@]2(C)CC[C@@H](O)C[C@@H]12 [Example 115]
- EC50: 100 to 1000 nM
- Emax: 376%

Compound: CC[C@H]1[C@@H](O)[C@@H]2[C@H](CC[C@]3(C)[C@@H]([C@H](C)CCOC(=O)NC4(C)CC4)CC[C@@H]23)[C@@]2(C)CC[C@@H](O)C[C@@H]12 [Example 135]
- EC50: 100 to 1000 nM
- Emax: 224%

Compound: CC[C@H]1[C@@H](O)[C@@H]2[C@H](CC[C@]3(C)[C@@H]([C@H](C)CCCOC(=O)N4CCCC4)CC[C@@H]23)[C@@]2(C)CC[C@@H](O)C[C@@H]12 [Example 131]
- EC50: 100 to 1000 nM
- Emax: 202%
